Data: patent US8349991B2, “Amphiphilic polymers and methods of use thereof” (Massachusetts Institute of Technology, priority 2005, dated 2013)
Entries after “also recorded” stand apart in the source; their conditions may differ. Where no end group is shown, it is not given here. The star is where a group is joined. Acm = CC(=O)NC*

What was measured:
INS-1 cells = experiment: Cellular cytotoxicity by MTS after exposure to polymers and reagents; format: cell-based; conditions: 1 mg/mL polymer or 0.05 mg/mL dye, 37° C., up to 48 hours post-exposure
Protocol: Cellular cytotoxicity following exposure to the polymers and reagents: INS-1 cells were incubated with the polymers and/or reagents (1 mg/mL polymer or 0.05 mg/mL dye) at 37° C., and cellular viability was determined by MTS (FIG. 5).

[1] = system: human uMUC-1-positive tumor cell lines; experiment: Cell binding assay with 125I-labeled CLIO-EPPT; format: cell-based
Source text: (§1) FIG. 7 depicts a crosslinked iron oxide (CLIO)-EPPT multi-modal imaging probe. (A) The core protein of the MUC-1 tumor antigen. The immunodominant region of the tandem repeat is recognized by the EPPT1 peptide derived from an ASM2 monoclonal antibody (45). (B) Synthesis (left) and scheme of the probe (right). […] Left, overlay of the bright field and FITC channel; middle, overlay of the bright field and Cy5.5 channel; right, overlay of the FITC and Cy5.5 channels. […] Magnification bars=10 μm.
(§2) Cell binding assays (FIG. 7D) were carried out with a variety of human uMUC-1-positive tumor cell lines: ZR-75-1 (breast), BT-20 (breast), HT29 (colon), CAPAN-2 (pancreas), LS174T (colon), and ChaGo-K-1 (lung) as well as human control uMUC-1-negative tumor and normal cell lines.

[2] = system: human control uMUC-1-negative tumor and normal cell lines; experiment: Cell binding assay with 125I-labeled CLIO-EPPT; format: cell-based; conditions: 1 hour incubation
Source text: as §1, §2

[3] = system: adenocarcinoma cell lines (BT-20, CAPAN-2, ChaGo-K-1, HT-29, LS174T); experiment: In vitro specificity of CLIO-EPPT (flow cytometry, fluorescence microscopy); format: cell-based, human
Source text: as §1
(§3) In vitro specificity of CLIO-EPPT for adenocarcinomas was further characterized by flow cytometric analysis of probe binding to selected adenocarcinoma and control cell lines (FIG. 7E). […] Fluorescence microscopy experiments, in which adenocarcinoma and control cells were incubated with the probe, confirmed the fluorescence-activated cell sorting data.

[4] = system: control uMUC-1-negative cell line U87; experiment: as above; format: cell-based, human
Source text: as §1, §3

[5] = Dynamic light scattering of CLIO-EPPT probes; format: physicochemical
Source text: To extend these studies using perfluoro labeled polymer, the same FITC-labeled EPPT1 peptide was used. […] The study with the CLIO-EPPT nanoparticles established test procedures which will be used.

[6] = system: uMUC-1-positive tumors versus uMUC-1-negative tumors; design: species or system mice; conditions: mouse, in vivo
Protocol: (§4) In vivo ^1H-MR imaging was performed on animals bearing bilateral uMUC-1-positive and uMUC-1-negative tumors before and 24 hours after probe injection. […] The same animals were subjected to optical imaging immediately after the MR-imaging session. […] Fluorescence microscopy of excised tumors and muscle tissue gave results consistent with NIRF images. From biodistribution studies with ^125I-CLIO-EPPT, on average uMUC-1-positive tumors accumulated 3.4 times more of the probe than uMUC-1-negative tumors.

[7] = system: uMUC-1-negative (U87) tumors; experiment: In vivo MR and NIRF imaging of tumor-bearing animals; design: species or system mice; conditions: control tumors
Protocol: (§5) (B) White light (left), near-infrared fluorescent (NIRF) (middle) images, and a color-coded map (right) of mice bearing bilateral underglycosylated mucin-1 antigen uMUC-1-negative (U87) and uMUC-1-positive (LS174T) tumors. NIRF imaging was performed immediately after the MRI session. […] (D) Dual channel fluorescence microscopy of the frozen LS 174T tumor section. Green channel fluorescence from the FITC-labeled EPPT peptide (left) colocalized with Cy5.5 fluorescence derived from Cy5.5-labeled cross-linked iron oxides (middle). […] Magnification bar=10 μm.
as §4

[8] = system: uMUC-1-positive (LS174T) tumors; experiment: as above; design: species or system mice
Protocol: as §5, §4

[9] = molecular target: underglycosylated mucin-1 antigen (uMUC-1) (Homo sapiens, UniProt P15941); conditions: read-out: binding constant Kd; cited from earlier work
[10] = Acute oral toxicity testing (LD50); conditions: C57BI/6, mouse, in vivo
Protocol: Acute oral toxicity testing of intact nanospheres and individual components was carried out to determine the LD50 (median lethal dose) with C57BI/6 (Table 2).

Cells = conditions: 0.2 mg/mL, 5 hr, 37° C.
INS cells = conditions: 0.2 mg/mL, 37° C.

Chain of underglycosylated mucin-1 antigen (uMUC-1) (P15941 24-1255): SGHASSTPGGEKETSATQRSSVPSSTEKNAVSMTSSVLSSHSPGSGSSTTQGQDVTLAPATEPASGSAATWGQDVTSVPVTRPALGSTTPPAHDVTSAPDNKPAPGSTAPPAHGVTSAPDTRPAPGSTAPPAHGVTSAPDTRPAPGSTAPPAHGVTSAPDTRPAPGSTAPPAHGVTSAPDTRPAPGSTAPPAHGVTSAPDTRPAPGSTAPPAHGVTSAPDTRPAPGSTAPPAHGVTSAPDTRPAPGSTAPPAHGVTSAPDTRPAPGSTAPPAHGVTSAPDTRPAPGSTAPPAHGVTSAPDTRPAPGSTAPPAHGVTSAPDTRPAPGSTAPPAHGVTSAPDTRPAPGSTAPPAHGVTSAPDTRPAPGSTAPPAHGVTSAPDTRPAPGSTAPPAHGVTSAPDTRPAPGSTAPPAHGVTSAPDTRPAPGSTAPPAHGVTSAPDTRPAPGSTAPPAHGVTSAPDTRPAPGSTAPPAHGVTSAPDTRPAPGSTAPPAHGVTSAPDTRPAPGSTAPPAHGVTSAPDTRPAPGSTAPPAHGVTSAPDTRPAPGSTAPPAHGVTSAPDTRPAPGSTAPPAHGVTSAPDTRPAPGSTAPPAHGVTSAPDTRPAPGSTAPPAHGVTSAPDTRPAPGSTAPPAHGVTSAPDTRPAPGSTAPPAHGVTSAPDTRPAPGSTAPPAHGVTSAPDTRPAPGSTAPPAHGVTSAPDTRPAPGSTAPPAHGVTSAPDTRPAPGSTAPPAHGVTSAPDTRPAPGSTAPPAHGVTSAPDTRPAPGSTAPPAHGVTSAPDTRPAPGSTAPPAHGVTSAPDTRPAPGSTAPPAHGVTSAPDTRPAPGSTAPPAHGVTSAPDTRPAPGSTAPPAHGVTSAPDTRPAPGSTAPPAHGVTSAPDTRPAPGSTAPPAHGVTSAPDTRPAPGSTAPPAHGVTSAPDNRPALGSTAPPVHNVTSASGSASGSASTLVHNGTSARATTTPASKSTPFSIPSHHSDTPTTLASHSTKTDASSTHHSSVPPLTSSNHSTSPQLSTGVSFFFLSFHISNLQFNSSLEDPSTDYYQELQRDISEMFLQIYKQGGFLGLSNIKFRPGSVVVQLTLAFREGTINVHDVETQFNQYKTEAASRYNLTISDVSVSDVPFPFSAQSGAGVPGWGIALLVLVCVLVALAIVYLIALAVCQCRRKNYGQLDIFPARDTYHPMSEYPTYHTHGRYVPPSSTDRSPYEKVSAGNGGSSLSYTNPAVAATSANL

## CCN(CC)c1ccc2c(-c3ccccc3C(=O)O)c3ccc(=[N+](CC)CC)cc-3oc2c1 [Rhodamine, Rhodamine B]
INS-1 cells
  cytotoxicity (cellular viability by MTS): cytotoxic effects were readily observed

## CLIO-EPPT: cross-linked iron oxide nanoparticle carrying Cy5.5 dye and FITC-labeled EPPT1 peptides on the dextran coat; radioiodinated for binding and biodistribution (YC(Acm)AREPPTRTFAYWG-{K(FITC)-Lys}; not fully specified; printed as Y-C(ACM)-A-R-E-P-P-T-R-T-F-A-Y-W-G-K(FITC)K; also: conjugated to CLIO iron oxide nanoparticle with Cy5.5 dye, radioiodinated)
[1]; 125I-labeled, 1 hour incubation
  CLIO-EPPT nanoparticles bound per cell: 10^7-10^8 nanoparticles per cell
[1]; cell binding assay, P<0.05
  accumulation versus uMUC-1-negative tumor or normal cells: significantly more
[2]
  nanoparticle uptake versus uMUC-1-positive tumor cell lines: much lower nanoparticle uptake
[3]
  probe binding by flow cytometry: bound the probe; also recorded: a shift in fluorescence in the FLI and FL4 channels
[3]; FITC and Cy5.5 channels
  staining by fluorescence microscopy: stained strongly; also recorded: colocalization of the FITC and Cy5.5 signal
[4]; U87, FITC or Cy5.5 channels
  staining by fluorescence microscopy: no fluorescence was observed
[4]; control cell line U87
  probe binding by flow cytometry: no cell binding; also recorded: no shift
[5]
  hydrodynamic diameter: about 36 nm
[6]
  probe accumulation in uMUC-1-positive tumors relative to uMUC-1-negative tumors: 3.4 times
[7]
  NIRF signal: no significant signal
  dual channel fluorescence microscopy of excised tumors: no signal
[7]; 24 hours after probe injection
  decrease in signal intensity of T2-weighted MR images: 13-18%
[8]; LS174T tumors, 24 h after probe injection
  decrease in signal intensity of T2-weighted MR images: 52%
[8]; uMUC-1-positive tumors
  dual channel fluorescence microscopy of excised tumors: colocalization of FITC and Cy5.5 signals
[8]; uMUC-1-positive tumors, immediately after MR-imaging session
  NIRF signal: high intensity NIRF signal; also recorded: strong NIRF signal

## synthetic peptide YCAREPPTRTFAYWG (SEQ ID NO: 1) derived from CDR3 Vh region of monoclonal antibody ASM2 (not fully specified (C-terminus); listed as Homo sapiens) [EPPT1]
[9]
  Kd: 20 µM

## N[C@@H](CC(=O)O)C(=O)O [Aspartic Acid]
[10]
  LD50: 20000 mg/kg

## COc1cccc2c1C(=O)c1c(O)c3c(c(O)c1C2=O)C[C@@](O)(C(=O)CO)C[C@@H]3O[C@H]1C[C@H](N)[C@H](O)[C@H](C)O1 [doxorubicin]
Cells
  intracellular localization (confocal microscopy): largely confined to the nucleus
INS cells
  rate of cell death (MTS): comparable rate of cell death
